Source: patent US20070042507A1, “Composite nanoparticles” (priority 2003, published 2007)
“And” between values parts separate entries of the source, which are not always exact repeats. Equal entries are not always repeated. Where two headings read alike, the source gives them in different places.

Experiments:
[1] = n-octanol/water logD by prior art shake-flask method
physchem [2] = experiment: physchem
physchem [3] = experiment: physchem; remark: listed apart in the source
[4] = cited from earlier work; for LogD value from literature: n-octanol/water; for logD, Literature Value: pH = 7.4, AstraZeneca in-house data
[5] = n-octanol/water logD with stock solution of n-octanol-charged nanoparticles (SC-CO2 delivery, example 10); conditions: pH 7.4
Description: 30 μL n-octanol was then added into the holder 6 by the use of a micro-pipettor. The autoclave vessel and the sample holder (30 ml in total volume) were charged and flushed with CO2 by opening and closing the valves between the two compartments and external outlets for a few times before the vessels were brought up to the desired pressure (150 bar). The temperature of the autoclave and sample holder was maintained at 40° C., to allow the dispersion of the small quantity of n-octanol into the porous particles. After 2 hours, the high pressure of the system was released to atmosphere very slowly.
An appropriate amount of n-octanol was added to provide a thin n-octanol layer covering the water phase (density of n-octanol is lower than water). The funnel was shaken for 5 to 10 minutes to allow mixing of the n-octanol with water. The funnel was then covered by aluminium foil to protect the solvent mixture from light degradation and evaporation. The funnel was placed in an upright position for 3 days to allow separation of the two phases. The n-octanol phase saturated with water was then collected.
The particles containing nanocomposite were dispersed into 5 mL of this saturated buffer solution to obtain a homogeneous stock-solution with a concentration of 0.0038 mL n-octanol per mL of solution. Partition coefficient measurements were carried out as described below, using such a stock solution prepared in the same way.
After shaking the mixed system for half an hour, the magnetic nanocomposites were precipitated in a few minutes by an external magnet placed near the bottom of the reactor-tube. UV-visible spectrophotometry was used to determine the absorption of analyte at the aqueous phase both before and after partitioning.
For the partition coefficient determination, stock solutions were prepared with a suitable n-octanol/nanoparticle ratio. […]
UV-visible spectrometry was used to quantitatively determine the drug concentration in aqueous phase before and after partitioning. […]

[6] = n-octanol/water, pH 7.4, LogD value measured (Prior art method) (pH = 7.4), single measurements, water:n-octanol 100:1
[7] = n-octanol/water, pH 7.4, Mean logD value measured (Prior art method) (ph = 7.4), mean of five, water:n-octanol 100:1
[8] = pH 7.4, LogD value measured by present invention (pH = 7.4), single measurements, water:n-octanol 100:1
[9] = pH 7.4, Mean logD value measured by present invention (pH = 7.4), mean of five, water:n-octanol 100:1
[10] = single measurements, water:n-octanol 100:1
[11] = pH 7.4, logD, Magnetic nano-composite method, water/n-octanol 100, average of at least five, confidence level 95%
[12] = pH 7.4, LogD value measured (Prior art method) (pH = 7.4), single measurements, water:n-octanol 100:1
[13] = pH 7.4, Mean logD value measured (Prior art method) (ph = 7.4), mean of five, water:n-octanol 100:1
[14] = n-octanol/water, pH 7.4, logD, Shake-Flask Method, water/n-octanol 100, average of at least five, confidence level 95%

logD [1, 6]	logD [1, 7]	logD [8]	LogD value measured (Prior art method) (pH = 7.4) [1, 10]	logD [11]	logD [5]	logD [1, 14]	SMILES	logD (physchem [2]; pH 7.4, LogD value measured by present invention (pH = 7.4))	logD (physchem [2]; pH 7.4, logD, Magnetic nano-composite method)	logD (physchem [3]; pH 7.4, LogD value measured (Prior art method) (pH = 7.4))	logD (physchem [3]; pH 7.4, logD, Shake-Flask Method)	logD [9]	LogD value measured by present invention (pH = 7.4) (single measurements, water:n-octanol 100:1, listed as 4-Nitroansiole)	LogD value from literature [4]	logD, Literature Value [4]	logD [1, 12]	logD [1, 13]	logD ([1]; pH 7.4, logD, Shake-Flask Method, water/n-octanol 100, average of at least five, confidence level 95%)	LogD value measured by present invention (pH = 7.4) [10]
1.25		1.27	1.264 and 1.244 and 1.256	1.27 ± 0.038			O=[N+]([O-])c1ccc(CO)cc1 [4-Nitrobenzyl alcohol]					1.27 ± 0.0381		1.260	1.260				
		0.0639					NC(=O)c1ccccc1 [Benzamide]												
3.08	3.076 ± 0.0047	3.14	3.074 and 3.083	3.164 ± 0.011	3.17 ± 0.448	3.076 ± 0.005	CN(C)CCCN1c2ccccc2Sc2ccc(Cl)cc21 [Chlorpromazine]					3.164 ± 0.0111		3.200	3.200				3.179 and 3.186 and 3.124
2.12	2.116 ± 0.0039	2.19	2.115 and 2.113 and 2.121 and 2.114	2.186 ± 0.004	2.08 ± 0.073	2.116 ± 0.004	c1ccc2ncccc2c1 [Quinoline]					2.186 ± 0.0044		2.020	2.020				

SMILES	logD [1, 6]	logD [1, 7]	logD [8]	LogD value measured (Prior art method) (pH = 7.4) [1, 10]	logD [11]	logD [5]	logD [1, 14]	logD (physchem [2]; pH 7.4, LogD value measured by present invention (pH = 7.4))	logD (physchem [2]; pH 7.4, logD, Magnetic nano-composite method)	logD (physchem [3]; pH 7.4, LogD value measured (Prior art method) (pH = 7.4))	logD (physchem [3]; pH 7.4, logD, Shake-Flask Method)	logD [9]	LogD value measured by present invention (pH = 7.4) (single measurements, water:n-octanol 100:1, listed as 4-Nitroansiole)	LogD value from literature [4]	logD, Literature Value [4]	logD [1, 12]	logD [1, 13]	logD ([1]; pH 7.4, logD, Shake-Flask Method, water/n-octanol 100, average of at least five, confidence level 95%)	LogD value measured by present invention (pH = 7.4) [10]
COc1ccc([N+](=O)[O-])cc1 [4-Nitroanisole]	2.01	2.01 ± 0.0077	2.01					2.01	2.013 ± 0.012	2.02	2.01 ± 0.008	2.013 ± 0.012	2.023 and 2.002						
O=[N+]([O-])c1ccc(O)cc1 [4-Nitrophenol]			1.81	1.779 and 1.811 and 1.780	1.49 ± 0.021	1.45 ± 0.026						1.807 ± 0.0052		1.480	1.480	1.77	1.78 ± 0.019	1.486 ± 0.009	
Nc1ccccc1 [Aniline]			0.963	0.945 and 0.929 and 0.926 and 0.932								0.973 ± 0.0303		0.900		0.936	0.934 ± 0.0094		0.990 and 0.935 and 0.989
